Reference: patent publication US9839632B2, “Methods and compositions using 4-amino-2-(2,6-dioxo-piperidine-3-yl)-isoindoline-1,3-dione for treatment and management of central nervous system cancers” (CELGENE CORPORATION, priority 2013, dated 2017)
Like-named read-outs stand apart in the source and are kept apart here.

Assays:
[1] = Blood and brain microdialysis (unbound concentrations) in male CD-IGS rats after single p.o. administration; type: in vivo, rat; details: for Kp / Tmax: rat
Description: Microdialysis: A total of 3 male CD-IGS rats were used. Stomach-cannulated CD-IGS rats (male, weight range: 250-300 g) supplied by Charles River Laboratories were used in this study. Following surgery, all animals were housed in BASi Raturn® containment systems with standard bedding material. Rat chow and water were available ad libitum, and all animals were kept in an ambient temperature room under a 6 am to 6 pm 12-hour lighting schedule.
Animal surgeries consisted of implanting a CMA/20 14/10PC vascular microdialysis probe (Part #8309571, CMA Microdialysis, North Chelmsford, Mass.) in the jugular vein, according to an IACUC protocol. Each animal was then stereotaxically implanted with an intracerebral guide directed toward the top of the striatum (A/P: 0.7, L/M: −3.0, DN: −3.0; from bregma), according to a rat stereotaxic atlas. Paxinos G. F. K., The mouse brain in stereotaxic coordinates (Academic Press, San Diego, Calif.) (2001). A BASi BR-4 brain microdialysis probe (Part # MD-2204, BASi, West Lafayette, Ind.) was inserted prior to recovery, and the probes were slowly perfused (0.5 μL/min) with either sterile lactated Ringer's (brain) or Dulbecco's phosphate-buffered saline (D-PBS; blood). Animals were allowed to recover for at least 24 hours prior to dosing. On the day of dosing, the blank perfusate was replaced with perfusate containing the probe calibrator, and flow was set to 1.25 μl/min. 4-amino-2-(2,6-dioxo-piperidine-3-yl)-isoindoline-1,3-dione was administered as a single p.o. administration via the stomach cannula, at 50 mg/kg (5 mL/kg) in a 0.5% A carboxymethylcellulose/0.25% Tween® 80 suspension formulation.
Microdialysate was collected in a cooling fraction collector, set at 4° C. (Eicom # EFC-82, EFR-82, Eicom, San Diego, Calif.) at intervals of 25 minutes for 10 hours after dosing. To calculate area-under-the-curve (AUC), the corrected concentration of each sample was multiplied by the interval over which the sample was collected; in this case 25 minutes, and divided by 60 minutes per hour. The sum of these values represented the total AUC value over the specified time range. To generate graphs, the concentration at each time point was plotted at the mid-point of each collection interval. Microdialysates were collected at the specified time points and analyzed for 4-amino-2-(2,6-dioxo-piperidine-3-yl)-isoindoline-1,3-dione concentration using a liquid chromatography-tandem mass spectrometry (LC-MS/MS) assay, within 12 hours. Interim storage was at 4° C.
Mass Spectral Analysis: Microdialysate samples were injected directly into the LC-MS/MS system without processing. Chromatographic separation was achieved using a Phenomenex Synergi C18 column (50×4.6 mm, 4 μm) with gradient elution of 0.1% formic acid in water and 0.1% formic acid in acetonitrile. Detection and quantitation were performed using positive electrospray in multiple reaction-monitoring (“MRM”) modes on a Waters Micromass Ultima tandem mass spectrometer. Transition ions monitored were m/z 274.1 to m/z 84.3 for the analyte and m/z 288.0 to m/z 98.0 for the probe calibrator CC-6032. Calibration was performed using weighted (1/x^2) quadratic regression of peak area. Two calibration curves for 4-amino-2-(2,6-dioxo-piperidine-3-yl)-isoindoline-1,3-dione in PBS and lactated ringers solution were constructed using standards at concentrations of 1.28, 2.56, 5.12, 10.2, 25.6, 64.0, 160, 400, 1000, and 2000 ng/mL. A quadratic regression model with a weighting of 1/(x^2) was used for the regression of calibration curves. Concentrations below the limit of quantitation (“BLOQ”) were treated as zero for calculations.

[2] = test system: macrophages and NK cells in the CNS lymphoma microenvironment; test: Immunohistochemistry/immunofluorescence of CNS lymphoma microenvironment, Raji model; type: in vivo, athymic mice; details: P<0.05 vs control
Description: Immunohistochemistry (“IHC”) assessment for macrophages: Paraffin sections (10 μm thick) were fixed, blocked, and immunostained with the appropriate antibody: Iba-1 (BD Biosciences) for macrophages, Ym1 (Stemcell Technologies) as a marker for M2 polarization, iNOS (Calbiochem) as a marker for M1 polarization. Aperio ScanScope XT slide scanner and image analysis system (Aperio Spectrum, Vista, Calif.) were used for quantitative assessment of macrophages. Three equal-size (0.4 mM2) fields in macrophage-dense areas were selected in the contralateral brain and the tumor for counting. Data were shown as an average of the three fields.
Immunofluorescence for natural killer cells: Frozen sections (10 μm thick) were permeabilized with PBS-0.2% Triton X-100 for 5 min. After blocking with PBS-5% goat serum-0.02% Triton X-100 for 45 mins at 37° C., the sections were incubated overnight at 4° C. with Rat monoclonal CD335 antibody (a marker for NK cells, 1:200, Biolegend). After washing, sections were incubated with the Alexa Fluor 594 Goat anti-Rat IgG secondary antibody (1:1000, Life Technologies) at 37° C. for 1.5 h. Finally, Vectashield H-1200 mounting medium with DAPI (Vector Laboratories) was used to stain the nuclei. Images were obtained on a Zeiss LSM 510 META confocal microscope. Six equal-size (0.2 mM^2) fields in NK-dense areas were selected in the tumor for taking pictures. Fluorescence intensity data were generated by Zeiss LSM 510 and shown as an average of six fields.
Statistical analysis: One-way ANOVA was used to compare the difference between the groups at each time point. Two-way repeated measures ANOVA was used to analyze the interaction between the time and treatment. Survival analysis was performed by Kaplan Meier method. Kaplan Meier survival curves were generated using Prism4 software and the statistical difference between curves was derived with a log-rank test. P<0.05 was considered significant.

[3] = microdialysis, male CD-IGS rats, single p.o. 50 mg/kg, n = 3, listed as 4-amino-2-(2,6-dioxo-piperidine-3-yl)-isoindoline-1,3-dione, 50 mg/kg
[4] = microdialysis, male CD-IGS rats, single p.o. 50 mg/kg, n = 3, listed as pomalidomide, 50 mg/kg
[5] = listed as 4-amino-2-(2,6-dioxo-piperidine-3-yl)-isoindoline-1,3-dione

With Nc1cccc2c1C(=O)N(C1CCC(=O)NC1=O)C2=O (stereo not drawn) [Pomalidomide, 4-amino-2-(2,6-dioxo-piperidine-3-yl)-isoindoline-1,3-dione] the Kp ([1]; male, CD-IGS, oral, 50 mg/kg, crossed the blood brain barrier, rats, read-out: CNS penetration) was roughly 0.39, the “AUC(0-10), unbound, Brain” value [1, 3] was 2700 ± 740 ng·h/mL and the “Cmax, unbound, Brain” value [1, 3] was 430 ± 63 ng/mL. The “AUC ratio Brain:Blood (unbound)” value [1, 4] was 0.39 ± 0.03, the “AUC(0-10), unbound, Blood” value [1, 4] was 6800 ± 2000 ng·h/mL and the “AUC(0-10), unbound, Brain” value [1, 4] was 2700 ± 740 ng·h/mL. The “Cmax, unbound, Blood” value [1, 4] was 1100 ± 82 ng/mL, the “Cmax, unbound, Brain” value [1, 4] was 430.0 ± 63 ng/mL and the Tmax ([1]; blood (jugular vein) microdialysate, po, microdialysis, male CD-IGS rats, single p.o. 50 mg/kg, n = 3, read-out: Tmax, unbound, Blood) was 4.6 ± 2.4 h. For the same molecule, the Tmax ([1]; brain (striatum) microdialysate, po, microdialysis, male CD-IGS rats, single p.o. 50 mg/kg, n = 3, read-out: Tmax, unbound, Brain) was 4.1 ± 1.5 h, the Kp ([1]; po, microdialysis, male CD-IGS rats, single p.o. 50 mg/kg, n = 3, read-out: AUC ratio Brain:Blood (unbound)) was 0.39 ± 0.03 and the “CD335 positive NK cells in CNS tumors” value [2] was “significantly increased”. For the same molecule, the “Ym1-expressing cells (M2-polarized macrophages) in tumor” value [2] was “significantly decreased”, the “iNOS-expressing cells (M1-polarized macrophages) in tumor” value [2] was “increased” and the “CD335 positive NK cells in CNS tumors” value [2, 5] was “significant increase”. The “Ym1-expressing cells (M2-polarized macrophages) in tumor” value [2, 5] was “significant decrease”, the “iNOS-expressing cells (M1-polarized macrophages) in tumor” value [2, 5] was “significant increase” and the “brain macrophages (Iba-1 positive cells)” value ([2]; contralateral brain and tumor) was “significantly increased”.
